Target: N6-adenosine-methyltransferase catalytic subunit (Homo sapiens, UniProt Q86U44)
Experiment: Inhibition of full length His-tagged METTL3 (unknown origin) co-expressed with full length FLAG-tagged METTL14 in baculovirus expression system preincubated using 5'P-uacacucgaucuggacuaaagcugcuc-3' as substrate and SAM as cosubstrate pre-incubated for 10 mins followed by addition of substrates and measured after 60 mins by RapidFire mass spectrometry (RF/MS) analysis

Chain of N6-adenosine-methyltransferase catalytic subunit (Q86U44 whole entry): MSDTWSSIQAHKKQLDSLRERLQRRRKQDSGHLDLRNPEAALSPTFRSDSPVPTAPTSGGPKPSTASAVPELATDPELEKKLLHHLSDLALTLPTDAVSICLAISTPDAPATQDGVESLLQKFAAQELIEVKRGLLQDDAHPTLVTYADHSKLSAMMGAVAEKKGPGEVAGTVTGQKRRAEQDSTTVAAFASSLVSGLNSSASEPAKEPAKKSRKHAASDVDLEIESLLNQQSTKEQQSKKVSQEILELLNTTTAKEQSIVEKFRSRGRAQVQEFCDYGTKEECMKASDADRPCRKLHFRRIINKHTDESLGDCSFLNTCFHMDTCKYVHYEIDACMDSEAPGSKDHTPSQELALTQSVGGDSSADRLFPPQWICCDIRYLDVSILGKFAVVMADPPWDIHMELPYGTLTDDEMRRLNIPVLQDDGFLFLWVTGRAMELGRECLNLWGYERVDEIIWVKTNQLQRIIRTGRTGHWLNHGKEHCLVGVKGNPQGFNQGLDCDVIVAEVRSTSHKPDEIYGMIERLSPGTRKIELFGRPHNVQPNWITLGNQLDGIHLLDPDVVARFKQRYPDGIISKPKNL

Row | IC50 | Compound
1 | < 0.006 µM | Nc1ncnc2c1c(Br)cn2[C@@H]1C[C@H](c2ccc3cc(CNCC45CC(F)(C4)C5)[nH]c3c2)[C@@H](O)[C@H]1O
2 | < 0.006 µM | Nc1ncnc2c1c(Br)cn2[C@@H]1O[C@H](/C=C/CCCNCC23CC(F)(C2)C3)[C@@H](O)[C@H]1O
3 | 0.0227 µM | Nc1ncnc2c1c(Br)cn2[C@@H]1O[C@H](/C=C/CCCNCC2CC(F)(F)C2)[C@@H](O)[C@H]1O

— ChEMBL document CHEMBL5393454, “Compounds inhibitors of mettl3” (2022)
